Experimental data taken from the supplement of paper PMC11208160.

Experiment: recombinant UMI read abundance after kanamycin selection (control-corrected) (log10(CPM+1)); higher = more efficient recombination; extreme values may be limits of the assay; sequences stand for … in AGTGCAGAGAAAATCGGCCAGTTTTCTCTGCCTGCAGTCCGCATGCCGTGGGACCCCTTGGGTTCTAACCTGTTGCCTAGATTTATGCAGCGGACTGCCTTTCTCCCAAAGTGATAAACCGG…AGGTTGGTTTCACT; site = the 11-nt donor
In short: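 For the IS621 bridge recombinase, a pooled Escherichia coli screen tested donor and donor-binding-loop pairs. Cells received the pair library together with a target plasmid encoding a fixed target and T7-inducible recombinase, then went onto IPTG (0.07 mM) plus kanamycin or unselected plates in duplicate. After PCR across the donor–target junction and sequencing, recombinant UMI counts were normalized to CPM, averaged, and scaled by control-derived factors. Each value is given as log10(CPM+1).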
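Also: IS621 bridge recombinase in Escherichia coli cells against a fixed T5 target plasmid.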

Sequence | recombinant UMI read abundance (log10)
ACTTATGCATGGACCGGTTTTCCCGGTAATCCGTATTTGGA (site AATTATGCTTC) | 0.425
ACTTATGCATGGACCGGTTTTCCCGGTAATCCGTATTTGGA (site ACTTATGCTTC) | 1.41
ACTTATGCATGGACCGGTTTTCCCGGTAATCCGTATTTGGA (site AGTTATGCTTC) | 0.698
ACTTATGCATGGACCGGTTTTCCCGGTAATCCGTATTTGGA (site ATTTATGCTTC) | 0.623
ACTTCCGCATGGACCGGTTTTCCCGGTAATCCGTATTTGTT (site ACTTCCGCTAA) | 1.5
ACTTCTCCATGGACCGGTTTTCCCGGTAATCCGTATTTGAT (site ACTTCTCCTAT) | 0.78
ACTTGAACATGGACCGGTTTTCCCGGTAATCCGTATTTGAG (site ACTAGAACTCT) | 0.0666
ACTTGAACATGGACCGGTTTTCCCGGTAATCCGTATTTGAG (site ACTCGAACTCT) | 0.999
ACTTGAACATGGACCGGTTTTCCCGGTAATCCGTATTTGAG (site ACTGGAACTCT) | 1.23
ACTTGAACATGGACCGGTTTTCCCGGTAATCCGTATTTGAG (site ACTTGAACTCT) | 0.998
AGAAACACATGGACCGGTTTTCCCGGTAATCCGTATTTGGT (site AGAAACACTAC) | 2.3
AGAAAGACATGGACCGGTTTTCCCGGTAATCCGTATTTGCA (site AGAAAGACTTG) | 2.6
AGAAAGACATGGACCGGTTTTCCCGGTAATCCGTATTTGCA (site AGCAAGACTTG) | 1.59
AGAAAGACATGGACCGGTTTTCCCGGTAATCCGTATTTGCA (site AGGAAGACTTG) | 0.932
AGAAAGACATGGACCGGTTTTCCCGGTAATCCGTATTTGCA (site AGTAAGACTTG) | 1.15
AGAAAGGCATGGACCGGTTTTCCCGGTAATCCGTATTTGAT (site AGAAAGGCTAA) | 0.418
AGAAAGGCATGGACCGGTTTTCCCGGTAATCCGTATTTGAT (site AGAAAGGCTAC) | 0
AGAAAGGCATGGACCGGTTTTCCCGGTAATCCGTATTTGAT (site AGAAAGGCTAG) | 0
AGAAAGGCATGGACCGGTTTTCCCGGTAATCCGTATTTGAT (site AGAAAGGCTAT) | 2.28
AGAACGCCATGGACCGGTTTTCCCGGTAATCCGTATTTGCC (site AGAACGCCTGG) | 0.968
AGAATGACATGGACCGGTTTTCCCGGTAATCCGTATTTGCA (site AGAATGACTTG) | 2.63
AGAATGACATGGACCGGTTTTCCCGGTAATCCGTATTTGCA (site AGGAAGACTTG) | 1.53
AGAATGTCATGGACCGGTTTTCCCGGTAATCCGTATTTGGG (site AGAATGTCTCC) | 2.01
AGAATTTCATGGACCGGTTTTCCCGGTAATCCGTATTTGGG (site AGAATTTCTCC) | 0.964
AGACAGCCATGGACCGGTTTTCCCGGTAATCCGTATTTGCA (site AGACAGCCTTG) | 1.21

Sequence | recombinant UMI read abundance (log10)
AGACGCACATGGACCGGTTTTCCCGGTAATCCGTATTTGTT (site AGACGCACTAA) | 1.79
AGAGAAGCATGGACCGGTTTTCCCGGTAATCCGTATTTGCG (site AGAGAAGCTCG) | 3.09
AGAGATCCATGGACCGGTTTTCCCGGTAATCCGTATTTGAA (site AGAGATCCTTT) | 2.01
AGAGATTCATGGACCGGTTTTCCCGGTAATCCGTATTTGGC (site AGAGATTCTGC) | 2.95
AGAGCTTCATGGACCGGTTTTCCCGGTAATCCGTATTTGGG (site AGAGCTTCTCC) | 1.06
AGAGGAGCATGGACCGGTTTTCCCGGTAATCCGTATTTGGC (site AGAGGAGCTGC) | 1.01
AGAGGATCATGGACCGGTTTTCCCGGTAATCCGTATTTGCA (site ACAGTATCTTG) | 1.59
AGAGGATCATGGACCGGTTTTCCCGGTAATCCGTATTTGCA (site AGAGGATCTTG) | 2.04
AGAGGCACATGGACCGGTTTTCCCGGTAATCCGTATTTGAC (site AGAGGCACTGT) | 2.32
AGAGTGGCATGGACCGGTTTTCCCGGTAATCCGTATTTGCT (site AGAGTGGCTAG) | 2.62
AGAGTGTCATGGACCGGTTTTCCCGGTAATCCGTATTTGCA (site ACAGTATCTTG) | 2.56
AGAGTGTCATGGACCGGTTTTCCCGGTAATCCGTATTTGCA (site AGAGTGTCTTG) | 3.45
AGATAATCATGGACCGGTTTTCCCGGTAATCCGTATTTGCT (site AGATAATCTAG) | 3.3
AGATCATCATGGACCGGTTTTCCCGGTAATCCGTATTTGCT (site AGATCATCTAG) | 1.56
AGATCATCATGGACCGGTTTTCCCGGTAATCCGTATTTGCT (site CGATCATCTAG) | 0.477
AGATCATCATGGACCGGTTTTCCCGGTAATCCGTATTTGCT (site GGATCATCTAG) | 0.911
AGATCATCATGGACCGGTTTTCCCGGTAATCCGTATTTGCT (site TGATCATCTAG) | 1.75
AGATGGGCATGGACCGGTTTTCCCGGTAATCCGTATTTGAG (site AGATGGGCTCT) | 1.06
AGATTAGCATGGACCGGTTTTCCCGGTAATCCGTATTTGAC (site AGATTAGCTGT) | 2.75
AGATTATCATGGACCGGTTTTCCCGGTAATCCGTATTTGGA (site AGATTATCTTC) | 1.9
AGATTCTCATGGACCGGTTTTCCCGGTAATCCGTATTTGTG (site AGATTCTCTCA) | 2.63
AGCAGAGCATGGACCGGTTTTCCCGGTAATCCGTATTTGAG (site AGCAGAGCTCT) | 2.54
AGCAGTACATGGACCGGTTTTCCCGGTAATCCGTATTTGAT (site AGCAGTACTAT) | 1.79
AGCATTGCATGGACCGGTTTTCCCGGTAATCCGTATTTGAA (site AGCATTGCTTT) | 2.4
AGCATTTCATGGACCGGTTTTCCCGGTAATCCGTATTTGAC (site AGCATTTCTGT) | 0.795

Sequence | recombinant UMI read abundance (log10)
AGCATTTCATGGACCGGTTTTCCCGGTAATCCGTATTTGAC (site AGCCTTTCTGT) | 0
AGCATTTCATGGACCGGTTTTCCCGGTAATCCGTATTTGAC (site AGCGTTTCTGT) | 0
AGCATTTCATGGACCGGTTTTCCCGGTAATCCGTATTTGAC (site AGCTTTTCTGT) | 0.236
AGCCACCCATGGACCGGTTTTCCCGGTAATCCGTATTTGTT (site AGCCACCCTAA) | 0.0153
AGCCACCCATGGACCGGTTTTCCCGGTAATCCGTATTTGTT (site CGCCACCCTAA) | 0.026
AGCCACCCATGGACCGGTTTTCCCGGTAATCCGTATTTGTT (site GGCCACCCTAA) | 0
AGCCACCCATGGACCGGTTTTCCCGGTAATCCGTATTTGTT (site TGCCACCCTAA) | 0
AGCCAGACATGGACCGGTTTTCCCGGTAATCCGTATTTGCA (site AGCCAGACTTG) | 2.18
AGCCAGACATGGACCGGTTTTCCCGGTAATCCGTATTTGCA (site AGGAAGACTTG) | 0
AGCCCAGCATGGACCGGTTTTCCCGGTAATCCGTATTTGTT (site AGCCAAGCTAA) | 0.0134
AGCCCAGCATGGACCGGTTTTCCCGGTAATCCGTATTTGTT (site AGCCCAGCTAA) | 0.602
AGCCCAGCATGGACCGGTTTTCCCGGTAATCCGTATTTGTT (site AGCCGAGCTAA) | 0.0227
AGCCCAGCATGGACCGGTTTTCCCGGTAATCCGTATTTGTT (site AGCCTAGCTAA) | 0.0205
AGCCCCGCATGGACCGGTTTTCCCGGTAATCCGTATTTGTT (site AGCCCCGCTAA) | 1.12
AGCCCGCCATGGACCGGTTTTCCCGGTAATCCGTATTTGGG (site AGCCCGCCTCC) | 0.00589
AGCCGGCCATGGACCGGTTTTCCCGGTAATCCGTATTTGAT (site AGCCGGCCTAT) | 0.00427
AGCCGTACATGGACCGGTTTTCCCGGTAATCCGTATTTGCT (site AGCCGTACTAG) | 1.74
AGCCGTACATGGACCGGTTTTCCCGGTAATCCGTATTTGCT (site CGCCGTACTAG) | 0.697
AGCCGTACATGGACCGGTTTTCCCGGTAATCCGTATTTGCT (site GGCCGTACTAG) | 0
AGCCGTACATGGACCGGTTTTCCCGGTAATCCGTATTTGCT (site TGCCGTACTAG) | 1.18
AGCCTAACATGGACCGGTTTTCCCGGTAATCCGTATTTGGG (site AGCCTAACTCC) | 0.0227
AGCCTAACATGGACCGGTTTTCCCGGTAATCCGTATTTGTT (site AGCCTAACTAA) | 0.00538
AGCCTAACATGGACCGGTTTTCCCGGTAATCCGTATTTGTT (site AGCCTACCTAA) | 0.024
AGCCTAACATGGACCGGTTTTCCCGGTAATCCGTATTTGTT (site AGCCTAGCTAA) | 0.0126
AGCCTAACATGGACCGGTTTTCCCGGTAATCCGTATTTGTT (site AGCCTATCTAA) | 0.00871
